Values quoted from earlier work in patent US20050232866A1, “Biochemically-activated contrast agents for magnetic resonance imaging” (Alerion Biomedical Inc., priority 2004, published 2005).

What was measured:
[1] = Gd(III) chelate
[2] = physiological pH

Row | SMILES | stability constant (formation constant) logK [1] | dissociation kinetics [2]
1 | O=C([O-])CN(CCN(CC(=O)[O-])CC(=O)O)CCN(CC(=O)[O-])CC(=O)O.[Gd+3] [Gd(DTPA)] | 22.4 | –
2 | O=C([O-])CN1CCN(CC(=O)[O-])CCN(CC(=O)O)CCN(CC(=O)[O-])CC1.[Gd+3] [Gd-DOTA] | 28.5 | very slow dissociation kinetics
